According to ChEMBL document CHEMBL1126391 (Bioorg Med Chem Lett, 1992):

Legend:
H9 = test: In vitro antiviral activity against human T-cell line (H9) infected with HIV-1 IIIB was determined as the lowest concentration required to reduce tissue culture supernatant p24 levels on day 7 by 90%; type: functional; conditions: H9, 168 h
C8166 [1] = test: In vitro anti-viral activity against C8166 cells (human T-cell line), expressed as the lowest test concentration affording complete protection to the culture (Infectious titre); 0.1-1; type: functional
[2] = Concentration determined to be cytotoxic (reduced cell number as compared with controls), was recorded after 7 days incubation in the […] assay system; type: cell-based; conditions: human, H9 cells (H9/HIV-IIIB assay system); read-out: Cell toxicity
[3] = target: T1, Human immunodeficiency virus type 1 reverse transcriptase (Human immunodeficiency virus 1, UniProt Q72547); test: Ability to inhibit HIV-1 IIIB reverse transcriptase catalyzed incorporation of tritiated thymidine triphosphate onto a biotinylated rN.dN template primer
[4] = target: T1, Human immunodeficiency virus type 1 reverse transcriptase; test: Ability to inhibit HIV-1 IIIB reverse transcriptase catalyzed incorporation of tritiated thymidine triphosphate onto a biotinylated rA.dT template primer
C8166 [5] = test: In vitro anti-viral activity against C8166 cells (human T-cell line), expressed as the lowest test concentration affording complete protection to the culture (Infectious titre); type: functional
C8166 [6] = test: In vitro anti-viral activity against C8166 cells (human T-cell line), expressed as the lowest test concentration affording complete protection to the culture (Infectious titre);. 0.1-1; type: functional
C8166 [7] = test: In vitro anti-viral activity against C8166 cells (human T-cell line), expressed as the lowest test concentration affording complete protection to the culture (Infectious titre); 0.01-0.1; type: functional
C8166 [8] = test: In vitro anti-viral activity against C8166 cells (human T-cell line), expressed as the lowest test concentration affording complete protection to the culture (Infectious titre);. 0.1-0.5; type: functional
C8166 [9] = test: In vitro anti-viral activity against C8166 cells (human T-cell line), expressed as the lowest test concentration affording complete protection to the culture (Infectious titre); 0.1-0.5; type: functional

Compound | IC90 (H9) [µM] | MCC at 168 h [2] [µM] | IC50 [3] [µM] | IC50 [4] [µM] | other results
CCN1c2ncccc2-c2ncc(C)n2-c2ccc(N(C)C)nc21 | 0.25 | > 100 | 1.1 | 2.4 | IC100 (C8166 [1]): 0.1 µM
Cc1nnc2n1-c1cccnc1N(C1CC1)c1ncccc1-2 | – | – | 7.82 | 11.5 | –
CCN1c2ncccc2-c2nncn2-c2cccnc21 | – | – | – | 72.8 | –
CCN1c2ncccc2-c2nccn2-c2ccc(OC)nc21 | 0.008 | > 10 | 0.258 | 0.598 | IC100 (C8166 [5]): 0.1 µM
CCN1c2ncccc2-c2nnc(C(C)C)n2-c2cccnc21 | – | – | 62.6 | > 100 | –
CCN1c2ncccc2-c2nc(C)cn2-c2cccnc21 | – | – | 2.75 | 11.2 | –
CCN1c2ncccc2-c2nccn2-c2c(C)ccnc21 | 0.55 | > 100 | 0.245 | 1.62 | IC100 (C8166 [6]): 0.1 µM
CCc1nnc2n1-c1cccnc1N(CC)c1ncccc1-2 | – | – | 20.2 | 56.6 | –
CCN1c2ncccc2-c2nnc(C)n2-c2cccnc21 | – | – | – | 38.9 | –
CCN1c2ncccc2-c2ncc(C)n2-c2ccc(N3CCCC3)nc21 | – | – | 1.77 | 2.7 | –
CCN1c2ncccc2-c2nnnn2-c2c(C)ccnc21 | – | – | 6.72 | 75.1 | –
CCN1c2ncccc2C(=O)Nc2c(C)ccnc21 | – | – | 1.5 | 10.3 | –
CCN1c2ncccc2-c2ncc(C)n2-c2cccnc21 | 0.018 | > 100 | 0.425 | 1.22 | IC100 (C8166 [7]): 0.01 µM
CCN1c2ncccc2-c2ncc(C)n2-c2ccc(OC)nc21 | 0.0023 | > 10 | 0.156 | 0.19 | IC100 (C8166 [5]): 0.01 µM
Cc1ccnc2c1-n1ccnc1-c1cccnc1N2C1CC1 | – | – | 0.217 | 2.05 | –
CCN1c2ncccc2-c2nccn2-c2ccc(N(C)C)nc21 | 0.041 | 10 | 2.19 | 3.9 | IC100 (C8166 [5]): 0.1 µM
CCN1c2ncccc2-c2ncc(C)n2-c2ccc(O)nc21 | 0.11 | > 100 | 3.2 | 12.2 | IC100 (C8166 [1]): 0.1 µM
CCN1c2ncccc2-c2nnc(C)n2-c2c(C)ccnc21 | – | – | – | 198 | –
CCN1c2ncccc2-c2nnc(CN(C)C)n2-c2cccnc21 | – | – | > 100 | > 100 | –
CCN1c2ncccc2-c2nccn2-c2cccnc21 | 0.07 | 50 | 0.775 | 11.2 | IC100 (C8166 [8]): 0.1 µM
CCN1c2ncccc2-c2nccn2-c2ccc(O)nc21 | – | – | 6.98 | 23.9 | –
CCc1cnc2n1-c1cccnc1N(CC)c1ncccc1-2 | – | – | 1.1 | 5.63 | –
CCN1c2ncccc2-c2nccn2-c2ccc(N3CCCC3)nc21 | 0.082 | 100 | 2 | 3.9 | IC100 (C8166 [1]): 0.1 µM
CCN1c2ncccc2-c2nnc(-c3ccccc3)n2-c2cccnc21 | – | – | – | > 100 | –
CCN1c2ncccc2-c2nncn2-c2c(C)ccnc21 | – | – | – | 44.5 | –
Cc1ccnc2c1NC(=O)c1cccnc1N2C1CC1 [NEVIRAPINE] | 0.078 | > 10 | – | – | IC100 (C8166 [9]): 0.1 µM
